Test results reported in patent US20260022142A1, “MACROCYCLIC IMMUNOMODULATORS” (Bristol-Myers Squibb Company, priority 2022, published 2026).
Numbered stars: 1 amine (or outer) side, 2 acyl side, 3 side chain; on linkers, the order of the positions; unused ones are H or OH. Bridge positions count the residues as written; N and C are the ends. Square brackets hold non-standard residues; d marks the D form. Peptide text beside a SMILES is read from it. * marks the point of attachment. ξ: configuration not given here. Phe(3-CF3) = N[C@@H](Cc1cccc(C(F)(F)F)c1)C(=O)O; Phe(4-COOH) = N[C@@H](Cc1ccc(C(=O)O)cc1)C(=O)O; Bip = N[C@@H](Cc1ccc(-c2ccccc2)cc1)C(=O)O; NH(CH2)14COOH = O=C(O)CCCCCCCCCCCCCCN*; Phe(3-Me) = Cc1cccc(C[C@H](N)C(=O)O)c1; Val(3-OH) = CC(C)(O)[C@H](N)C(=O)O; X12 = CC(N)[C@H](N[*:1])C(=O)[*:2]; Ala(cPr) = N[C@@H](CC1CC1)C(=O)O; hArg = N=C(N)NCCCC[C@H](N)C(=O)O; 4Pal = N[C@@H](Cc1ccncc1)C(=O)O; Cha = N[C@@H](CC1CCCCC1)C(=O)O; Cit = NC(=O)NCCC[C@H](N)C(=O)O; Thr(3ξ) = CC(O)[C@H](N)C(=O)O; PEG4 = NCCOCCOCCOCCOCCC(=O)O; 4Abz = Nc1ccc(C(=O)O)cc1; Carboxymethyl = O=C(O)C*; Orn = NCCC[C@H](N)C(=O)O; Aun = NCCCCCCCCCCC(=O)O; Dab = NCC[C@H](N)C(=O)O; Nva = CCC[C@H](N)C(=O)O; Dap = NC[C@H](N)C(=O)O; AEEA = NCCOCCOCC(=O)O; Ac3c = NC1(C(=O)O)CC1

Molecular target: T1, PD-1/PD-L1 interaction (PE-labeled human PD-L1-Ig binding to Jurkat cell line over-expressing human PD-1) (Homo sapiens, UniProt Q15116)
T1 construct: expressed in transfected cells; host or cells: Jurkat
T1 sequence (Q15116 25-288): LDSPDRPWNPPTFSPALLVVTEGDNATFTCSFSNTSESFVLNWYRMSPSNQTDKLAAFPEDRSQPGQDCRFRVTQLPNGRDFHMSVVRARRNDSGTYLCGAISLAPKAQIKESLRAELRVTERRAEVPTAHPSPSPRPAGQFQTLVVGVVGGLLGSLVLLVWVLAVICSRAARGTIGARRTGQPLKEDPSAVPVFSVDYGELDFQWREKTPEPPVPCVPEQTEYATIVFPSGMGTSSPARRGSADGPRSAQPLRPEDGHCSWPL
Experiment: Jurkat-PD-1 Cell Binding High-Content Screening Assay (CBA)
Type: cell-based
Conditions: Jurkat cell line over-expressing human PD-1; PE-labeled PD-L1-Ig 20 nM final; read-out: Jurkat hPD1-PDL1 IC50
Summary of the method: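 Human PD-L1-Ig carrying a covalent PE label on its Ig tag serves as the probe, applied at 20 nM final to compound-treated (2 h, 37° C) Jurkat-hPD-1 cells in medium with 10% fetal calf serum. After one hour, fixation and nuclear staining precede high-content image analysis.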

SMILES	IC50 [nM]
Cc1cccc(C[C@@H]2NC(=O)[C@H](CC(=O)O)NC(=O)[C@H](Cc3ccc(OCC(=O)O)cc3)NC(=O)[C@H](Cc3ccncc3)NC(=O)CSC[C@@H](C(=O)N[C@@H](CCN)C(=O)NCCOCCOCC(=O)NCCOCCOCC(=O)NCCCCCCCCCCC(=O)O)NC(=O)[C@H](CCC(=O)O)NC(=O)[C@H](C(C)(C)O)NC(=O)[C@H](CC3CCCCC3)NC(=O)[C@H](CCN)NC(=O)[C@@H](CC(C)C)NC(=O)[C@H](CCCN)NC(=O)[C@H](Cc3ccc(C(=O)O)cc3)NC(=O)[C@H](Cc3ccc(-c4ccccc4)cc3)NC(=O)[C@H](Cc3ccc(C(=O)O)cc3)NC2=O)c1 [Compound 3741] ({CH2CO}-[4Pal]Y(Carboxymethyl)D[Phe(3-Me)][Phe(4-COOH)][Bip][Phe(4-COOH)][Orn][dL][Dab][Cha][Val(3-OH)]EC[Dab][AEEA][AEEA][Aun]-OH; thioether N-14)	8.8
Cc1cccc(C[C@@H]2NC(=O)[C@H](CC(=O)O)NC(=O)[C@H](Cc3ccc(OCC(=O)O)cc3)NC(=O)[C@H](CN)NC(=O)CSC[C@@H](C(=O)NCCCCCCCCCCC(=O)O)NC(=O)[C@H](CCCN)NC(=O)[C@H](C(C)C)NC(=O)[C@H](CC3CCCCC3)NC(=O)[C@H](CCN)NC(=O)[C@@H](CC(C)C)NC(=O)[C@H](CCCN)NC(=O)[C@H](Cc3ccc(O)cc3)NC(=O)[C@H](Cc3ccc(-c4ccccc4)cc3)NC(=O)[C@H](Cc3ccc(O)cc3)NC2=O)c1 [Compound 2693] ({CH2CO}-[Dap]Y(Carboxymethyl)D[Phe(3-Me)]Y[Bip]Y[Orn][dL][Dab][Cha]V[Orn]C[Aun]-OH; thioether N-14)	13
CCC[C@@H]1NC(=O)CSC[C@@H](C(=O)N[C@@H](CCN)C(=O)NCCOCCOCCOCCOCCC(=O)NCCCCCCCCCCCCCCC(=O)O)NC(=O)[C@H](CO)NC(=O)[C@H](C(C)(C)O)NC(=O)[C@H](CC2CCCCC2)NC(=O)[C@H](CCN)NC(=O)[C@@H](CC(C)C)NC(=O)[C@H](CCCN)NC(=O)[C@H](Cc2ccc(OCC(=O)O)cc2)NC(=O)[C@H](Cc2ccc(-c3ccccc3)cc2)NC(=O)[C@H](Cc2ccc(OCC(=O)O)cc2)NC(=O)[C@H](Cc2cccc(C(F)(F)F)c2)NC(=O)[C@H](CC(=O)O)NC(=O)[C@H](Cc2ccc(C(=O)O)cc2)NC1=O [Compound 2902] ({CH2CO}-[Nva][Phe(4-COOH)]D[Phe(3-CF3)]Y(Carboxymethyl)[Bip]Y(Carboxymethyl)[Orn][dL][Dab][Cha][Val(3-OH)]SC[Dab][PEG4]-{NH(CH2)14COOH}; thioether N-14)	282
Cc1cccc(C[C@@H]2NC(=O)[C@H](CC(=O)O)NC(=O)[C@H](Cc3ccc(OCC(=O)O)cc3)NC(=O)[C@H](C(C)N)NC(=O)CSC[C@@H](C(=O)N[C@@H](CCN)C(=O)NCCCCCCCCCCC(=O)O)NC(=O)[C@H](CCC(N)=O)NC(=O)[C@H](C(C)O)NC(=O)[C@H](CC3CCCCC3)NC(=O)[C@H](CCN)NC(=O)[C@@H](CC(C)C)NC(=O)[C@H](CCCN)NC(=O)[C@H](Cc3ccc(OCC(=O)O)cc3)NC(=O)[C@H](Cc3ccc(-c4ccccc4)cc3)NC(=O)[C@H](Cc3ccc(OCC(=O)O)cc3)NC2=O)c1 (stereo partly drawn) [Compound 3519] ({CH2CO}-[X12]Y(Carboxymethyl)D[Phe(3-Me)]Y(Carboxymethyl)[Bip]Y(Carboxymethyl)[Orn][dL][Dab][Cha][Thr(3ξ)]QC[Dab][Aun]-OH; thioether N-14)	10.4
Cc1cccc(C[C@@H]2NC(=O)[C@H](CC(=O)O)NC(=O)[C@H](Cc3ccc(OCC(=O)O)cc3)NC(=O)[C@H](CCCNC(=N)N)NC(=O)CSC[C@@H](C(=O)NC3(C(=O)NCCCCCCCCCCC(=O)O)CC3)NC(=O)[C@H]([C@@H](C)O)NC(=O)[C@H](C(C)C)NC(=O)[C@H](CC3CC3)NC(=O)[C@H](CCN)NC(=O)[C@@H](CC(C)C)NC(=O)[C@H](CCCN)NC(=O)[C@H](Cc3ccc(OCC(=O)O)cc3)NC(=O)[C@H](Cc3ccc(-c4ccccc4)cc3)NC(=O)[C@H](Cc3ccc(OCC(=O)O)cc3)NC2=O)c1 [Compound 2163] ({CH2CO}-RY(Carboxymethyl)D[Phe(3-Me)]Y(Carboxymethyl)[Bip]Y(Carboxymethyl)[Orn][dL][Dab][Ala(cPr)]VTC[Ac3c][Aun]-OH; thioether N-14)	93

The remaining lines, values ahead:

IC50 [nM]	SMILES
23.8	CC(C)C[C@H]1NC(=O)[C@H](CCCN)NC(=O)[C@H](C(C)C)NC(=O)[C@H](Cc2ccc(-c3ccccc3)cc2)NC(=O)[C@H](C(C)C)NC(=O)[C@H](Cc2c[nH]c3ccccc23)NC(=O)[C@H](CC(=O)O)NC(=O)[C@H](Cc2ccc(OCC(=O)O)cc2)NC(=O)[C@H](CN)NC(=O)CSC[C@@H](C(=O)N[C@@H](CCCCN)C(=O)NCCCCCCCCCCC(=O)O)NC(=O)[C@H](CCCCN)NC(=O)[C@H](C(C)C)NC(=O)[C@H](CC2CCCCC2)NC(=O)[C@H](CCN)NC1=O [Compound 2533] ({CH2CO}-[Dap]Y(Carboxymethyl)DWV[Bip]V[Orn][dL][Dab][Cha]VKCK[Aun]-OH; thioether N-14)
10.8	Cc1cccc(C[C@@H]2NC(=O)[C@H](CC(=O)O)NC(=O)[C@H](Cc3ccc(OCC(=O)O)cc3)NC(=O)[C@H](CN)NC(=O)CSC[C@@H](C(=O)N[C@@H](CCCCN)C(=O)NCCOCCOCC(=O)NCCCCCCCCCCC(=O)O)NC(=O)[C@H](CCCNC(=N)N)NC(=O)[C@H](C(C)C)NC(=O)[C@H](CC3CCCCC3)NC(=O)[C@H](CCN)NC(=O)[C@@H](CC(C)C)NC(=O)[C@H](CCCN)NC(=O)[C@H](CCC(=O)O)NC(=O)[C@H](Cc3ccc(-c4ccccc4)cc3)NC(=O)[C@H](C(C)C)NC2=O)c1 [Compound 2670] ({CH2CO}-[Dap]Y(Carboxymethyl)D[Phe(3-Me)]V[Bip]E[Orn][dL][Dab][Cha]VRCK[AEEA][Aun]-OH; thioether N-14)
7.4	Cc1cccc(C[C@@H]2NC(=O)[C@H](CC(=O)O)NC(=O)[C@H](Cc3ccc(OCC(=O)O)cc3)NC(=O)[C@H](CCCCNC(=N)N)NC(=O)CSC[C@@H](C(=O)N[C@@H](CCN)C(=O)NCCOCCOCC(=O)NCCCCCCCCCCC(=O)O)NC(=O)[C@H](CCCN)NC(=O)[C@H](C(C)C)NC(=O)[C@H](CC3CCCCC3)NC(=O)[C@H](CCN)NC(=O)[C@@H](CC(C)C)NC(=O)[C@H](CCN)NC(=O)[C@H](C(C)C)NC(=O)[C@H](Cc3ccc(-c4ccccc4)cc3)NC(=O)[C@H](C(C)C)NC2=O)c1 [Compound 3252] ({CH2CO}-[hArg]Y(Carboxymethyl)D[Phe(3-Me)]V[Bip]V[Dab][dL][Dab][Cha]V[Orn]C[Dab][AEEA][Aun]-OH; thioether N-14)
63.2	Cc1cccc(C[C@@H]2NC(=O)[C@H](CC(=O)O)NC(=O)[C@H](Cc3ccc(O)cc3)NC(=O)[C@H](CC(N)=O)NC(=O)CSC[C@@H](C(=O)N[C@@H](CCN)C(=O)NCCCCCCCCCCC(=O)O)NC(=O)[C@H]([C@@H](C)O)NC(=O)[C@H](C(C)C)NC(=O)[C@H](CC3CCCCC3)NC(=O)[C@H](CCN)NC(=O)[C@@H](CC(C)C)NC(=O)[C@H](CCCN)NC(=O)[C@H](Cc3ccc(O)cc3)NC(=O)[C@H](Cc3ccc(-c4ccccc4)cc3)NC(=O)[C@H](C(C)C)NC2=O)c1 [Compound 2738] ({CH2CO}-NYD[Phe(3-Me)]V[Bip]Y[Orn][dL][Dab][Cha]VTC[Dab][Aun]-OH; thioether N-14)
19.9	Cc1cccc(C[C@@H]2NC(=O)[C@H](CC(=O)O)NC(=O)[C@H](Cc3ccc(OCC(=O)O)cc3)NC(=O)[C@H](Cc3c[nH]cn3)NC(=O)CSC[C@@H](C(=O)N[C@@H](CCN)C(=O)NCCCCCCCCCCC(=O)O)NC(=O)[C@H](C(C)O)NC(=O)[C@H](C(C)C)NC(=O)[C@H](CC3CCCCC3)NC(=O)[C@H](CCN)NC(=O)[C@@H](CC(C)C)NC(=O)[C@H](CCCN)NC(=O)[C@H](CCCNC(N)=O)NC(=O)[C@H](Cc3ccc(-c4ccccc4)cc3)NC(=O)[C@H](C(C)C)NC2=O)c1 (stereo partly drawn) [Compound 3453] ({CH2CO}-HY(Carboxymethyl)D[Phe(3-Me)]V[Bip][Cit][Orn][dL][Dab][Cha]V[Thr(3ξ)]C[Dab][Aun]-OH; thioether N-14)
1.3	CCC[C@@H]1NC(=O)CSC[C@@H](C(=O)N[C@@H](CCN)C(=O)NCCOCCOCC(=O)NCCCCCCCCCCC(=O)O)NC(=O)[C@H](CO)NC(=O)[C@H](C(C)(C)O)NC(=O)[C@H](CC2CCCCC2)NC(=O)[C@H](CCN)NC(=O)[C@@H](CC(C)C)NC(=O)[C@H](CCCN)NC(=O)[C@H](Cc2ccc(OCC(=O)O)cc2)NC(=O)[C@H](Cc2ccc(-c3ccccc3)cc2)NC(=O)[C@H](Cc2ccc(OCC(=O)O)cc2)NC(=O)[C@H](Cc2cccc(C)c2)NC(=O)[C@H](CC(=O)O)NC(=O)[C@H](Cc2ccc(C(=O)O)cc2)NC1=O [Compound 2247] ({CH2CO}-[Nva][Phe(4-COOH)]D[Phe(3-Me)]Y(Carboxymethyl)[Bip]Y(Carboxymethyl)[Orn][dL][Dab][Cha][Val(3-OH)]SC[Dab][AEEA][Aun]-OH; thioether N-14)
10.5	Cc1cccc(C[C@@H]2NC(=O)[C@H](CC(=O)O)NC(=O)[C@H](Cc3ccc(OCC(=O)O)cc3)NC(=O)[C@H](CCCNC(=N)N)NC(=O)CSC[C@@H](C(=O)N[C@H](CC(N)=O)C(=O)NCCCCCCCCCCC(=O)O)NC(=O)[C@H](CCC(N)=O)NC(=O)[C@H](C(C)C)NC(=O)[C@H](CC3CCCCC3)NC(=O)[C@H](CCN)NC(=O)[C@@H](CC(C)C)NC(=O)[C@H](CCCN)NC(=O)[C@H](CCCNC(N)=O)NC(=O)[C@H](Cc3ccc(-c4ccccc4)cc3)NC(=O)[C@H](C(C)C)NC2=O)c1 [Compound 3434] ({CH2CO}-RY(Carboxymethyl)D[Phe(3-Me)]V[Bip][Cit][Orn][dL][Dab][Cha]VQC[dN][Aun]-OH; thioether N-14)

Same assay, conditions: Jurkat hPD1-PDL1 IC50, Jurkat cell line over-expressing human PD-1; PE-labeled PD-L1-Ig 20 nM final

SMILES	IC50 [nM]
CC(C)C[C@@H]1NC(=O)[C@H](Cc2c[nH]c3ccccc23)NC(=O)[C@H](CC(=O)O)NC(=O)[C@H](Cc2ccncc2)NC(=O)[C@H](Cc2ccc(OCC(=O)O)cc2)NC(=O)CSC[C@@H](C(=O)Nc2ccc(C(=O)NCCCCCCCCCCC(=O)O)cc2)NC(=O)[C@H](CCCNC(=N)N)NC(=O)[C@H](C(C)C)NC(=O)[C@H](CC2CCCCC2)NC(=O)[C@H](CCN)NC(=O)[C@@H](CC(C)C)NC(=O)[C@H](CCCN)NC(=O)[C@H](C(C)C)NC(=O)[C@H](Cc2ccc(-c3ccccc3)cc2)NC1=O [Compound 1230] ({CH2CO}-Y(Carboxymethyl)[4Pal]DWL[Bip]V[Orn][dL][Dab][Cha]VRC[4Abz][Aun]-OH; thioether N-14)	537
